What all share (format): in vivo
Assay [1] deals with Myzus persicae. The experiment in a line: Myzus persicae spray test (Chinese cabbage leaf discs). The settings on record: foliar, 144 h, Aufwandmenge 500g/ha, after 6 days, read-out: Wirkung. An excerpt: (§1) Zur Herstellung einer zweckmäßigen Wirkstoffzubereitung löst man 1 Gewichtsteil Wirkstoff mit den angegebenen Gewichtsteilen Lösungsmittel und füllt mit Wasser, welches eine Emulgatorkonzentration von 1000 ppm enthält, bis zum Erreichen der gewünschten Konzentration auf. Zur Herstellung weiterer Testkonzentrationen wird mit emulgatorhaltigem Wasser verdünnt.
Chinakohlblattscheiben (Brassica pekinensis), die von allen Stadien der Grünen Pfirsichblattlaus (Myzus persicae) befallen sind, werden mit einer Wirkstoffzubereitung der gewünschten Konzentration gespritzt.
Nach 6 Tagen wird die Wirkung in % bestimmt. Dabei bedeutet 100 %, dass alle Blattläuse abgetötet wurden; 0 % bedeutet, dass keine Blattläuse abgetötet wurden.

For assay [2], the system named is Ctenocephalides felis. The assay can be described thus: Ctenocephalides felis oral test (feeding on treated citrated cattle blood). Conditions: 48 h, Aufwandmenge 100ppm, after 2 days, read-out: Wirkung (Abtötung). The method, then:
Zwecks Herstellung einer zweckmäßigen Wirkstoffzubereitung vermischt man 10 mg Wirkstoff mit 0,5 ml Dimethylsulfoxid. Durch Verdünnen mit citriertem Rinderblut erhält man die gewünschte Konzentration.
Ca. 20 nüchterne adulte Katzenflöhe (Ctenocephalides felis) werden in eine Kammer eingesetzt, die oben und unten mit Gaze verschlossen ist. Auf die Kammer wird ein Metallzylinder gestellt, dessen Unterseite mit Parafilm verschlossen ist. Der Zylinder enthält die Blut-Wirkstoffzubereitung, die von den Flöhen durch die Parafilmmembran aufgenommen werden kann.
Nach 2 Tagen wird die Abtötung in % bestimmt. Dabei bedeutet 100 %, dass alle Flöhe abgetötet wurden; 0 % bedeutet, dass keiner der Flöhe abgetötet wurde.

The test system of assay [3] is Lucilia cuprina. The experiment in a line: Lucilia cuprina test (L1 larvae on treated minced horse meat). Conditions: 48 h, Aufwandmenge 100ppm, after 2 days, read-out: Wirkung (Abtötung). How it is done: Zur Herstellung einer zweckmäßigen Wirkstoffzubereitung vermischt man 10 mg Wirkstoff mit 0,5 ml Dimethylsulfoxid und verdünnt das Konzentrat mit Wasser auf die gewünschte Konzentration.
Ca. 20 L1-Larven der Australischen Schafgoldfliege (Lucilia cuprina) werden in ein Testgefäß überführt, welches gehacktes Pferdefleisch und die Wirkstoffzubereitung der gewünschten Konzentration enthält.
Nach 2 Tagen wird die Abtötung in % bestimmt. Dabei bedeutet 100 %, dass alle Larven abgetötet wurden; 0 % bedeutet, dass keine Larven abgetötet wurden.

In assay [4] the test system is Meloidogyne incognita. The experiment in a line: Meloidogyne incognita test (gall formation on lettuce roots). The settings on record: 336 h, Aufwandmenge 20ppm, after 14 days, read-out: Wirkung (nematizide Wirkung anhand der Gallenbildung). An excerpt: Zur Herstellung einer zweckmäßigen Wirkstoffzubereitung vermischt man 1 Gewichtsteil Wirkstoff mit der angegebenen Menge Lösungsmittel und verdünnt das Konzentrat mit Wasser auf die gewünschte Konzentration.
Gefäße werden mit Sand, Wirkstofflösung, einer Ei-Larven-Suspension des südlichen Wurzelgallenälchens (Meloidogyne incognita) und Salatsamen gefüllt. Die Salatsamen keimen und die Pflänzchen entwickeln sich. An den Wurzeln entwickeln sich die Gallen.
Nach 14 Tagen wird die nematizide Wirkung anhand der Gallenbildung in % bestimmt. Dabei bedeutet 100 %, dass keine Gallen gefunden wurden; 0 % bedeutet, dass die Zahl der Gallen an den behandelten Pflanzen der unbehandelten Kontrolle entspricht.

For assay [5], the system named is Spodoptera frugiperda. The assay can be described thus: Spodoptera frugiperda spray test (maize leaf discs, caterpillars). The settings on record: foliar, 168 h, Aufwandmenge 500g/ha, after 7 days, read-out: Wirkung.
Source text: as §1
Maisblattscheiben (Zea mays) werden mit einer Wirkstoffzubereitung der gewünschten Konzentration gespritzt und nach dem Abtrocknen mit Raupen des Heerwurms (Spodoptera frugiperda) besetzt.
Nach 7 Tagen wird die Wirkung in % bestimmt. Dabei bedeutet 100 %, dass alle Raupen abgetötet wurden; 0 % bedeutet, dass keine Raupe abgetötet wurde.

Assay [6] has as its system Phaedon cochleariae. The assay can be described thus: Phaedon cochleariae spray test (Chinese cabbage leaf discs, larvae). The settings on record: foliar, 168 h, read-out: Wirkung.
Source text: as §1
Chinakohlblattscheiben (Brassica pekinensis) werden mit einer Wirkstoffzubereitung der gewünschten Konzentration gespritzt und nach dem Abtrocknen mit Larven des Meerrettichblattkäfers (Phaedon cochleariae) besetzt.
Nach 7 Tagen wird die Wirkung in % bestimmt. Dabei bedeutet 100 %, dass alle Käferlarven abgetötet wurden; 0 % bedeutet, dass keine Käferlarven abgetötet wurden.

The subject of assay [7] is Ctenocephalides felis. The assay can be described thus: Ctenocephalides felis in-vitro contact test with adult cat fleas (coated glass tubes). Conditions: 48 h, read-out: Wirkung. The method, then:
Für die Beschichtung der Teströhrchen werden zunächst 9 mg Wirkstoff in 1 ml Aceton p.a. gelöst und anschließend mit Aceton p.a. auf die gewünschte Konzentration verdünnt. 250 µl der Lösung werden durch Drehen und Kippen auf einem Rotationsschüttler (2 h Schaukelrotation bei 30 rpm) homogen auf den Innenwänden und dem Boden eines 25ml Glasröhrchens verteilt. Bei 900 ppm Wirkstofflösung und 44,7 cm^2 Innenoberfläche wird bei homogener Verteilung eine Flächendosis von 5 µg/cm^2 erreicht.
Nach Abdampfen des Lösungsmittels werden die Gläschen mit 5-10 adulten Katzenflöhen (Ctenocephalides felis) besetzt, mit einem gelochten Kunststoffdeckel verschlossen und liegend bei Raumtemperatur und Umgebungsfeuchte inkubiert. Nach 48 h wird die Wirksamkeit bestimmt. Hierzu werden die Gläschen aufrecht gestellt und die Flöhe auf den Boden des Gläschens geklopft. Flöhe, die unbeweglich auf dem Boden verbleiben oder sich unkoordiniert bewegen, gelten als tot bzw. angeschlagen.
Eine Substanz zeigt gute Wirkung gegen Ctenocephalides felis, wenn in diesem Test bei einer Aufwandmenge von 5 µg/cm^2 mindestens 80% Wirkung erzielt wurde. Dabei bedeutet 100% Wirkung, dass alle Flöhe angeschlagen oder tot waren. 0% Wirkung bedeutet, dass keine Flöhe geschädigt wurden.

This is an account of results in patent EP3284739A1, “SUBSTITUTED (HET) ARYL COMPOUNDS AS PESTICIDES” (Bayer CropScience Aktiengesellschaft, priority 2017, dated 2018).

For `O=C(Nc1cc(-c2ccc(OC(F)(F)F)cc2)cc(NC(=O)C2(c3ccccc3)CC2)n1)C1CC1` [I-008], in assay [1], the mortality at 500 g/ha is 90%.
`O=C(Nc1cc(-c2ccc(OC(F)(F)F)cc2)cc(NC(=O)C2CC2)n1)C1CC1` [I-001, N,N'-{4-[4-(Trifluormethoxy)phenyl]pyridin-2,6-diyl}dicyclopropancarboxamid]: the mortality at 100 µg/mL in assay [2] came to 100%; in assay [3], 95%. Moreover, the inhibition at 20 µg/mL in assay [4] was found to be 90%. Also, the mortality at 500 g/ha in assay [5] and in assay [6] was 100% throughout.
Consider `CC(C)(C)C(=O)Nc1cc(-c2ccc(OC(F)(F)F)cc2)cc(NC(=O)C2CC2)n1` [I-017], for which the mortality at 100 µg/mL in assay [2] came out at 100%. In addition, the mortality at 500 g/ha in assay [7], in assay [5] and in assay [6] was 100% in each case.
